Article PMC10746543, “Design principles for cyclin K molecular glue degraders” (Nature Chemical Biology, 2023)
Where “and” joins values, the source holds several entries; their conditions need not be identical. Equal entries are not always repeated.

Molecular target: T1, CDK12–cyclin K and DDB1 (Homo sapiens, UniProt Q16531+Q9NYV4, K965R)
T1 construct: His6–CDK12 (a.a. 713–1,052); full-length or beta-propeller B domain deletion (ΔBPB: a.a. 396–705 deleted) constructs of His6–DDB1ΔBPB, StrepII–Avi–DDB1, or His6–Spy–DDB1; made in house; host or cells: Trichoplusia ni High Five insect cells (baculovirus)
Assay: TR-FRET ternary complex formation assay (compound titration)
Assay type: binding
Conditions: for TR-FRET signal at compound concentration: replicate titrations
Method in brief: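 Signal was the ratio of 520 nm to 490 nm fluorescence, measured after a 70 μs delay that reduced background.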

[1] = compound concentration 7.92001 nM
[2] = compound concentration 15.84 nM
[3] = compound concentration 30.96 nM
[4] = compound concentration 62.6401 nM
[5] = compound concentration 125.28 nM
[6] = compound concentration 244.8 nM
[7] = compound concentration 993.601 nM
[8] = compound concentration 2001.6 nM

T1 sequence (Q9NYV4 713-1052 K965R): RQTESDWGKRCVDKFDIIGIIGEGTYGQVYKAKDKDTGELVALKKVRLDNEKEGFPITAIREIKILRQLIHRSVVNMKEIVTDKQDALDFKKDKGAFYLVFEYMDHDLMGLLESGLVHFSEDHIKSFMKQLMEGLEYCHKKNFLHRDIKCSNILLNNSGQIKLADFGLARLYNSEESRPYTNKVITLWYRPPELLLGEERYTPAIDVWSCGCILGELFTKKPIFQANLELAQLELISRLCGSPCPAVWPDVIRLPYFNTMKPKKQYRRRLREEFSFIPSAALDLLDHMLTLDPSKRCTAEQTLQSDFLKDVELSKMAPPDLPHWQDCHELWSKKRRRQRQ
T1 sequence (O75909 1-267 partner): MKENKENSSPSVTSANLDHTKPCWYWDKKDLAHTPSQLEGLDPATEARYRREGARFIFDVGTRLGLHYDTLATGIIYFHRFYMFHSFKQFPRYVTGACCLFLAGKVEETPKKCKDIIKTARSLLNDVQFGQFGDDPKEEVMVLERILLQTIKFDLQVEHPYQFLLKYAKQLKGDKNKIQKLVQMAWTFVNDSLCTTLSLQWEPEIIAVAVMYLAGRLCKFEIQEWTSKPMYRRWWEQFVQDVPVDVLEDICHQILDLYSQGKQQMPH
T1 sequence (Q16531 whole entry): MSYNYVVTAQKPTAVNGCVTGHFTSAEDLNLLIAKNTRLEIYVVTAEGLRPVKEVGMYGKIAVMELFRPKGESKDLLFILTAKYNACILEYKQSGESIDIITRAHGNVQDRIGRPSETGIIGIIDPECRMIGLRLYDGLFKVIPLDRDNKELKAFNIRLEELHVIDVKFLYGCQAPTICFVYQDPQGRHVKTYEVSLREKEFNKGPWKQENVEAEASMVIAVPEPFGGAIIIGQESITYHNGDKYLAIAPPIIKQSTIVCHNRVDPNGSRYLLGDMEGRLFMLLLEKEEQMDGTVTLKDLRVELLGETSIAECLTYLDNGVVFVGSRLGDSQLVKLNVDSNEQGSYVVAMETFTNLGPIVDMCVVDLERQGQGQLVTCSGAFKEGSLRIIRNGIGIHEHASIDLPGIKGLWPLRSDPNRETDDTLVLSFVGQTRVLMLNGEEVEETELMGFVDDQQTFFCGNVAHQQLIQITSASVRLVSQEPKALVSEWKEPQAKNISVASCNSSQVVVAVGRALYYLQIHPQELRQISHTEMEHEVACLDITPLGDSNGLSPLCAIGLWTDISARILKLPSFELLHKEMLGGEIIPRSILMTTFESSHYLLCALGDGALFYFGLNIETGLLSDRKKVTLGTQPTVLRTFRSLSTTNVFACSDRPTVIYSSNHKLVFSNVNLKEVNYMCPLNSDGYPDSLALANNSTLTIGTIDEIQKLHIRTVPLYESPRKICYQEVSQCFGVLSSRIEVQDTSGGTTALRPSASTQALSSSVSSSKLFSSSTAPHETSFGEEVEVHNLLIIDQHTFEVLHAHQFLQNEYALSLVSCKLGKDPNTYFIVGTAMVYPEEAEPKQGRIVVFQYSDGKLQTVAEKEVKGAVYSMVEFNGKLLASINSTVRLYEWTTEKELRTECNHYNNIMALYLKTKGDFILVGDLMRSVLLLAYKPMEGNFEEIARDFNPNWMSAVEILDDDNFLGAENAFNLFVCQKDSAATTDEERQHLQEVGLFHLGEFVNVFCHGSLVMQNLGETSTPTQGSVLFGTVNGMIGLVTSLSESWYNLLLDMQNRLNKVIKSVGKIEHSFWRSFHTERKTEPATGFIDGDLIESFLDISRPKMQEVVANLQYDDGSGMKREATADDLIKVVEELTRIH

## CCC(CO)Nc1nc(NCc2ccc(-c3ccccn3)cc2)c2ncn(C(C)C)c2n1 (stereo not shown) [CR8, reference compound]
Compound concentration 3.6 nM, raw titration data
  TR-FRET signal at compound concentration 3.6 nM: 0.7291 and 0.6022 and 0.6555 and 0.4637 and 0.4981 and 0.4299 and 0.4143 and 0.532 and 0.5274 and 0.5046 and 0.4937 and 0.4479 and 0.5082 and 0.5733 and 0.5902 and 0.6794 and 0.6674 and 0.7173
Compound concentration 3.6 nM
  TR-FRET signal at compound concentration: 0.7291 and 0.6022 and 0.6555 and 0.4637 and 0.4981 and 0.4299 and 0.4143 and 0.532
[1]
  TR-FRET signal, individual replicate: 1.345 and 0.9894 and 0.9813 and 0.8825 and 0.9549 and 0.8747 and 0.8749 and 0.9605
  TR-FRET signal at compound concentration: 1.345 and 0.9894 and 0.9813 and 0.8825 and 0.9549 and 0.8747 and 0.8749 and 0.9605
Compound concentration 7.92001 nM, raw replicate titration data
  TR-FRET signal at compound concentration 7.92001 nM: 1.345 and 0.9894 and 0.9813 and 0.8825 and 0.9549 and 0.8747 and 0.8749 and 0.9605 and 0.982 and 0.9498 and 0.9487 and 0.89 and 1.021 and 1.066 and 1.149 and 1.341 and 1.311 and 1.1731
Compound concentration 7.92001 nM, raw titration data
  TR-FRET signal at compound concentration 7.92001 nM: 1.345 and 0.9894 and 0.9813 and 0.8825 and 0.9549 and 0.8747 and 0.8749 and 0.9605 and 0.982 and 0.9498 and 0.9487 and 0.89 and 1.021 and 1.066 and 1.149 and 1.341 and 1.311 and 1.1731
[2]
  TR-FRET signal, individual replicate: 2.359 and 1.808 and 1.67 and 1.71 and 1.978 and 1.839 and 1.833 and 1.762
  TR-FRET signal at compound concentration: 2.359 and 1.808 and 1.67 and 1.71 and 1.978 and 1.839 and 1.833 and 1.762
Compound concentration 15.84 nM, raw replicate titration data
  TR-FRET signal at compound concentration 15.84 nM: 2.359 and 1.808 and 1.67 and 1.71 and 1.978 and 1.839 and 1.833 and 1.762 and 1.792 and 1.805 and 1.852 and 1.758 and 1.925 and 1.999 and 2.166 and 2.456 and 2.406 and 2.268
Compound concentration 15.84 nM, raw titration data
  TR-FRET signal at compound concentration 15.84 nM: 2.359 and 1.808 and 1.67 and 1.71 and 1.978 and 1.839 and 1.833 and 1.762 and 1.792 and 1.805 and 1.852 and 1.758 and 1.925 and 1.999 and 2.166 and 2.456 and 2.406 and 2.268
[3]
  TR-FRET signal, individual replicate: 3.429 and 2.93 and 2.851 and 3.1006 and 3.279 and 3.156 and 3.142 and 2.862
  TR-FRET signal at compound concentration: 3.429 and 2.93 and 2.851 and 3.1006 and 3.279 and 3.156 and 3.142 and 2.862
Compound concentration 30.96 nM, raw replicate titration data
  TR-FRET signal at compound concentration 30.96 nM: 3.429 and 2.93 and 2.851 and 3.1006 and 3.279 and 3.156 and 3.142 and 2.862 and 2.958 and 2.99 and 2.943 and 2.896 and 3.197 and 3.095 and 3.319 and 3.517 and 3.418 and 3.349
Compound concentration 30.96 nM, raw titration data
  TR-FRET signal at compound concentration 30.96 nM: 3.429 and 2.93 and 2.851 and 3.1006 and 3.279 and 3.156 and 3.142 and 2.862 and 2.958 and 2.99 and 2.943 and 2.896 and 3.197 and 3.095 and 3.319 and 3.517 and 3.418 and 3.349
[4]
  TR-FRET signal, individual replicate: 3.992 and 3.667 and 3.67 (2×) and 3.796 and 3.836 and 3.683 and 3.652
  TR-FRET signal at compound concentration: 3.992 and 3.667 and 3.67 (2×) and 3.796 and 3.836 and 3.683 and 3.652
Compound concentration 62.6401 nM, raw replicate titration data
  TR-FRET signal at compound concentration 62.6401 nM: 3.992 and 3.667 and 3.67 (2×) and 3.796 and 3.836 and 3.683 and 3.652 and 3.6831 and 3.54 and 3.542 and 3.62 and 3.792 and 3.69 and 3.855 and 3.914 and 3.849 and 3.7896
Compound concentration 62.6401 nM, raw titration data
  TR-FRET signal at compound concentration 62.6401 nM: 3.992 and 3.667 and 3.67 (2×) and 3.796 and 3.836 and 3.683 and 3.652 and 3.6831 and 3.54 and 3.542 and 3.62 and 3.792 and 3.69 and 3.855 and 3.914 and 3.849 and 3.7896
[5]
  TR-FRET signal, individual replicate: 4.095 and 3.873 and 3.877 and 4.034 and 3.962 and 3.842 and 3.836 and 3.935
  TR-FRET signal at compound concentration: 4.095 and 3.873 and 3.877 and 4.034 and 3.962 and 3.842 and 3.836 and 3.935
Compound concentration 125.28 nM, raw replicate titration data
  TR-FRET signal at compound concentration 125.28 nM: 4.095 and 3.873 and 3.877 and 4.034 and 3.962 and 3.842 and 3.836 and 3.935 and 3.986 and 3.722 and 3.719 and 3.7404 and 3.636 and 3.869 and 4.026 and 4.013 and 4.003 and 3.8874
Compound concentration 125.28 nM, raw titration data
  TR-FRET signal at compound concentration 125.28 nM: 4.095 and 3.873 and 3.877 and 4.034 and 3.962 and 3.842 and 3.836 and 3.935 and 3.986 and 3.722 and 3.719 and 3.7404 and 3.636 and 3.869 and 4.026 and 4.013 and 4.003 and 3.8874
[6]
  TR-FRET signal, individual replicate: 4.223 and 4.06 and 4.046 and 4.132 and 4.096 and 3.922 and 3.897 and 4.118
  TR-FRET signal at compound concentration: 4.223 and 4.06 and 4.046 and 4.132 and 4.096 and 3.922 and 3.897 and 4.118
Compound concentration 244.8 nM, raw replicate titration data
  TR-FRET signal at compound concentration 244.8 nM: 4.223 and 4.06 and 4.046 and 4.132 and 4.096 and 3.922 and 3.897 and 4.118 and 4.095 and 3.806 and 3.805 and 3.852 and 3.955 and 3.967 and 4.129 and 4.013 and 4.0726 and 3.918
Compound concentration 244.8 nM, raw titration data
  TR-FRET signal at compound concentration 244.8 nM: 4.223 and 4.06 and 4.046 and 4.132 and 4.096 and 3.922 and 3.897 and 4.118 and 4.095 and 3.806 and 3.805 and 3.852 and 3.955 and 3.967 and 4.129 and 4.013 and 4.0726 and 3.918
[7]
  TR-FRET signal, individual replicate: 4.301 and 4.232 and 4.095 and 4.244 and 4.268 and 3.98 and 3.937 and 4.179
  TR-FRET signal at compound concentration: 4.301 and 4.232 and 4.095 and 4.244 and 4.268 and 3.98 and 3.937 and 4.179
Compound concentration 993.601 nM, raw replicate titration data
  TR-FRET signal at compound concentration 993.601 nM: 4.301 and 4.232 and 4.095 and 4.244 and 4.268 and 3.98 and 3.937 and 4.179 and 4.188 and 3.896 and 3.831 and 3.928 and 4.083 and 4.021 and 4.231 and 4.144 and 3.981
Compound concentration 993.601 nM, raw titration data
  TR-FRET signal at compound concentration 993.601 nM: 4.301 and 4.232 and 4.095 and 4.244 and 4.268 and 3.98 and 3.937 and 4.179 and 4.188 and 3.896 and 3.831 and 3.928 and 4.083 and 4.021 and 4.231 and 4.144 and 3.981
[8]
  TR-FRET signal, individual replicate: 4.322 and 4.194 and 4.162 and 4.144 and 4.309 and 4.034 and 4.299
  TR-FRET signal at compound concentration: 4.322 and 4.194 and 4.162 and 4.144 and 4.309 and 4.034 and 4.299
Compound concentration 2001.6 nM, raw replicate titration data
  TR-FRET signal at compound concentration 2001.6 nM: 4.322 and 4.194 and 4.162 and 4.144 and 4.309 and 4.034 and 4.299 and 4.197 and 3.982 and 3.892 and 3.93 and 4.094 and 4.059 and 4.292 and 4.196 and 4.177 and 4.087
Compound concentration 2001.6 nM, raw titration data
  TR-FRET signal at compound concentration 2001.6 nM: 4.322 and 4.194 and 4.162 and 4.144 and 4.309 and 4.034 and 4.299 and 4.197 and 3.982 and 3.892 and 3.93 and 4.094 and 4.059 and 4.292 and 4.196 and 4.177 and 4.087
